Experimental data: ChEMBL document CHEMBL1201862, “PubChem BioAssay data set” (2004)
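Briefly, cells in 96-well plates were exposed to five compound concentrations for 48 h, and endpoints were estimated by linear interpolation. GI50: concentration for 50% inhibition of growth.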 Calls of active or inactive are those of the source. Cut-off read from the data, not from the text of the source: active = GI50 up to about 1.1 µM and inactive = higher.

Columns and labels:
Assay in all cases: inhibition of tumour cell growth, NCI panel, 48 h
HT-29 = test system: HT-29
SNB-19 = test system: SNB-19
M14 = test system: M14
SK-MEL-2 = test system: SK-MEL-2
EKVX = test system: EKVX
T47D = test system: T47D
RPMI-8226 = test system: RPMI-8226
IGROV-1 = test system: IGROV-1
MDA-MB-231 = test system: MDA-MB-231
KM12 = test system: KM12
ACHN = test system: ACHN
SNB-75 = test system: SNB-75
BT-549 = test system: BT-549
UACC-257 = test system: UACC-257
PC-3 = test system: PC-3
NCI-H226 = test system: NCI-H226
MCF7 = test system: MCF7
MDA-MB-435 = test system: MDA-MB-435
HCT-15 = test system: HCT-15
COLO 205 = test system: COLO 205

| SMILES | GI50 (HT-29) | GI50 (SNB-19) | GI50 (M14) | GI50 (SK-MEL-2) | GI50 (EKVX) | GI50 (T47D) | GI50 (RPMI-8226) | GI50 (IGROV-1) | GI50 (MDA-MB-231) | GI50 (KM12) | GI50 (ACHN) | GI50 (SNB-75) | GI50 (BT-549) | GI50 (UACC-257) | GI50 (PC-3) | GI50 (NCI-H226) | GI50 (MCF7) | GI50 (MDA-MB-435) | GI50 (HCT-15) [µM] | GI50 (COLO 205) |
| --- | --- | --- | --- | --- | --- | --- | --- | --- | --- | --- | --- | --- | --- | --- | --- | --- | --- | --- | --- | --- |
| CO[C@H]1[C@H](O)[C@H](O[C@H]2CC[C@@]3(C)[C@H](CC[C@@H]4[C@@H]3CC[C@]3(C)[C@@H](C5=CC(=O)OC5)CC[C@]43O)C2)O[C@@H](C)[C@@H]1O [NERIIFOLIN] | 0.000615 µM (active) | 0.00094 µM (active) | 0.00139 µM (active) | 0.00117 µM (active) | 0.000473 µM (active) | 0.000628 µM (active) | 0.00111 µM (active) | 0.000526 µM (active) | 0.00165 µM (active) | 0.00152 µM (active) | 0.000224 µM (active) | 0.000483 µM (active) | 0.000429 µM (active) | 0.00167 µM (active) | 0.000724 µM (active) | 0.00596 µM (active) | 0.00076 µM (active) | < 0.0001 µM (active) | 0.00112 | 0.0018 µM (active) |
| Cc1ccnc2sc3ccccc3c(=O)c12 | 30.3 µM (inactive) | 49.8 µM (inactive) | 44.9 µM (inactive) | 81.1 µM (inactive) | 18 µM (inactive) | 55.3 µM (inactive) | 36.7 µM (inactive) | 30.7 µM (inactive) | 29.3 µM (inactive) | 53.7 µM (inactive) | 35.1 µM (inactive) | 22.4 µM (inactive) | 25.9 µM (inactive) | 55.2 µM (inactive) | 35.6 µM (inactive) | 36.1 µM (inactive) | 38.4 µM (inactive) | 52.6 µM (inactive) | 52.2 | 45.7 µM (inactive) |
| ClCCCc1ccccc1C1=NCCc2ccccc21 | 28.5 µM (inactive) | 36.8 µM (inactive) | > 100 µM (inactive) | > 100 µM (inactive) | 80.9 µM (inactive) | 31.3 µM (inactive) | 3.21 µM (inactive) | 98.9 µM (inactive) | > 100 µM (inactive) | 40.9 µM (inactive) | > 100 µM (inactive) | 17.5 µM (inactive) | 21 µM (inactive) | 43.1 µM (inactive) | 36.5 µM (inactive) | 55.1 µM (inactive) | 66.2 µM (inactive) | 37.5 µM (inactive) | > 100 | 22 µM (inactive) |
| O=C(N/N=C\c1ccc([N+](=O)[O-])cc1)Nc1ccc2ccccc2c1 | 27.1 µM (inactive) | 52.1 µM (inactive) | 32.4 µM (inactive) | > 100 µM (inactive) | 44.6 µM (inactive) | 56.1 µM (inactive) | 52.8 µM (inactive) | 26.1 µM (inactive) | 26.1 µM (inactive) | 23.3 µM (inactive) | 51.5 µM (inactive) | 27.2 µM (inactive) | 45.4 µM (inactive) | 44.3 µM (inactive) | 44.8 µM (inactive) | 32.6 µM (inactive) | 32.5 µM (inactive) | 34.2 µM (inactive) | 38.6 | 24.7 µM (inactive) |
| COc1ccc(C2=CN3CCC[C@H]3C=C2c2cc(O)c(OC)c(OC)c2)cc1OC | 0.0056 µM (active) | 0.00309 µM (active) | 0.00325 µM (active) | 0.00314 µM (active) | 0.00608 µM (active) | 0.00371 µM (active) | 0.00519 µM (active) | 0.0104 µM (active) | 0.00631 µM (active) | 0.00337 µM (active) | 0.00302 µM (active) | 0.00227 µM (active) | 0.0207 µM (active) | 0.00646 µM (active) | 0.0124 µM (active) | 0.00376 µM (active) | 0.005 µM (active) | 0.00284 µM (active) | 0.00362 | 0.0115 µM (active) |
| CCN(CC)/N=N/c1c(C(N)=O)n[nH]c1C | > 100 µM (inactive) | 77.1 µM (inactive) | > 100 µM (inactive) | > 100 µM (inactive) | 26.9 µM (inactive) | 60.3 µM (inactive) | 44.2 µM (inactive) | > 100 µM (inactive) | > 100 µM (inactive) | 50 µM (inactive) | 32.8 µM (inactive) | 23.2 µM (inactive) | 11.1 µM (inactive) | > 100 µM (inactive) | > 100 µM (inactive) | 48.9 µM (inactive) | 30.5 µM (inactive) | 77.4 µM (inactive) | 63.7 | 52.5 µM (inactive) |
| CCOC(=O)c1ccc(-c2cccs2)n1C | 47.2 µM (inactive) | > 100 µM (inactive) | > 100 µM (inactive) | > 100 µM (inactive) | 48.5 µM (inactive) | 19 µM (inactive) | 84.5 µM (inactive) | > 80.7 µM (inactive) | > 100 µM (inactive) | > 100 µM (inactive) | > 100 µM (inactive) | > 100 µM (inactive) | > 83 µM (inactive) | > 79.1 µM (inactive) | > 100 µM (inactive) | > 100 µM (inactive) | > 96.4 µM (inactive) | > 92.5 µM (inactive) | 51.5 | > 100 µM (inactive) |
| CC(C)C(Cl)CC/C(CBr)=C(\Cl)CCl (stereo not given) | 4.75 µM (inactive) | 14.6 µM (inactive) | 1.85 µM (inactive) | 2.1 µM (inactive) | 19.6 µM (inactive) | 1.5 µM (inactive) | 2.27 µM (inactive) | 1.77 µM (inactive) | 3.3 µM (inactive) | 3.21 µM (inactive) | 16 µM (inactive) | 2.01 µM (inactive) | 2.05 µM (inactive) | 2.79 µM (inactive) | 10.7 µM (inactive) | 6.7 µM (inactive) | 0.646 µM (active) | 3.2 µM (inactive) | 2.89 | 5.46 µM (inactive) |
| CCOC(=O)N(Cc1cccs1)c1cc(OC)c(OC)c(OC)c1 | 70.1 µM (inactive) | > 100 µM (inactive) | > 100 µM (inactive) | 26.5 µM (inactive) | > 100 µM (inactive) | 54.1 µM (inactive) | 25.8 µM (inactive) | 17 µM (inactive) | 75 µM (inactive) | 47.5 µM (inactive) | > 100 µM (inactive) | 49.4 µM (inactive) | 40.6 µM (inactive) | > 100 µM (inactive) | 33.1 µM (inactive) | 86.3 µM (inactive) | 58.2 µM (inactive) | 17.4 µM (inactive) | 62.4 | 7.18 µM (inactive) |
| CC(=O)N(C)C(C(=O)N1CC(C)CC1C(=O)N(C)C1C(=O)NC(CC(C)C)C(=O)N2CC(C)CC2C(=O)NC(CC(C)C)C(=O)N(C)C(C(C)C)C(=O)N2CCCC2C(=O)N(C)C(CC(C)C)C(=O)NCC(=O)OC1C)C(C)C (stereo not given) | > 100 µM (inactive) | > 100 µM (inactive) | > 100 µM (inactive) | > 100 µM (inactive) | > 100 µM (inactive) | > 100 µM (inactive) | > 100 µM (inactive) | 72.1 µM (inactive) | > 100 µM (inactive) | > 100 µM (inactive) | > 100 µM (inactive) | > 100 µM (inactive) | > 100 µM (inactive) | > 100 µM (inactive) | > 100 µM (inactive) | > 100 µM (inactive) | > 100 µM (inactive) | > 100 µM (inactive) | > 100 | > 100 µM (inactive) |
| Cc1ccc(/C=C2\Sc3scc(-c4ccccc4)[n+]3C2=O)cc1 | 24.7 µM (inactive) | 24.5 µM (inactive) | 23.8 µM (inactive) | 24.1 µM (inactive) | 19.3 µM (inactive) | 48.3 µM (inactive) | 8.28 µM (inactive) | 18 µM (inactive) | 17.5 µM (inactive) | 18.5 µM (inactive) | 20.7 µM (inactive) | 10.8 µM (inactive) | 17.4 µM (inactive) | 22.8 µM (inactive) | 29 µM (inactive) | 37.3 µM (inactive) | 37.5 µM (inactive) | 9.27 µM (inactive) | 19.8 | 20.7 µM (inactive) |
| O/N=C1\C=Cc2nn(-c3ccccc3)nc2\C1=N/O | 4.85 µM (inactive) | 5.5 µM (inactive) | 5.79 µM (inactive) | 30.3 µM (inactive) | 5.41 µM (inactive) | 5.47 µM (inactive) | 3.71 µM (inactive) | 2.79 µM (inactive) | 4.06 µM (inactive) | 4.55 µM (inactive) | 2.3 µM (inactive) | 15.6 µM (inactive) | 3.4 µM (inactive) | 3.11 µM (inactive) | 3.25 µM (inactive) | 2.1 µM (inactive) | 2.69 µM (inactive) | 2.74 µM (inactive) | 4.38 | 3.7 µM (inactive) |
| CN(C)CCCc1c2ccccc2nc2ccc(Cl)cc12 | 13.2 µM (inactive) | 12 µM (inactive) | 14.2 µM (inactive) | 19.9 µM (inactive) | 17 µM (inactive) | 36.5 µM (inactive) | 21.3 µM (inactive) | 16.4 µM (inactive) | 16.6 µM (inactive) | 17.9 µM (inactive) | 14.9 µM (inactive) | 15.5 µM (inactive) | 18.6 µM (inactive) | 13.3 µM (inactive) | 16.8 µM (inactive) | 24.2 µM (inactive) | 6.76 µM (inactive) | 13.3 µM (inactive) | 30.5 | 14.9 µM (inactive) |
| CC(=O)C(=[N+]=[N-])C(=O)NCC#N | > 10 µM (inactive) | > 10 µM (inactive) | > 10 µM (inactive) | > 10 µM (inactive) | > 10 µM (inactive) | > 10 µM (inactive) | > 10 µM (inactive) | > 10 µM (inactive) | > 10 µM (inactive) | 6.93 µM (inactive) | > 10 µM (inactive) | 0.441 µM (active) | > 10 µM (inactive) | > 10 µM (inactive) | > 10 µM (inactive) | > 10 µM (inactive) | > 10 µM (inactive) | > 10 µM (inactive) | > 10 | > 10 µM (inactive) |
